# Data as given in US4276286A, “Process for decreasing ammonia concentration in domestic animals or fowls” (Kumiai Chemical Industry Co., Ltd., priority 1975, dated 1981).
# Legend:
# [1] = in vivo
# mice = test: Acute toxicity in mice; assay type: in vivo, mouse; conditions: injection into abdominal cavity; for LD50 in words: mice, compared with multhiomycin
# Procedure: Acute toxins of multhiomycin, thiopeptin and thiostrepton administered to mice, were measured by injection of each drug into the abdominal cavities of the mice.
# [2] = Acute toxicity (general statement); assay type: in vivo; conditions: in comparison with other antibiotics
# [3] = test system: ammonia (NH3-N) in portal blood; test: Ammonia concentration in portal blood of pigs (modified Fujii-Okuda method); assay type: in vivo, pig; conditions: 10 ppm in diet, after 2 months; for NH3-N in portal blood: control 6.80
# Procedure: (§1) A deproteinizing solution was added to the sample to deproteinize the sample and remove coloration-inhibiting components therefrom and simultaneously deactivate enzymes for preventing formation of ammonia during standing. The supernatant was separated and a coloring solution containing phenol and a nitroprusside salt was added thereto. Then, an alkaline solution was added to the mixture to make it alkaline, and a coloring solution containing sodium hypochlorite was further added to effect oxidation and form indophenol showing a blue color. The absorbance of this color at 630 mμ was measured to determine the ammonia nitrogen concentration. This measurement method is expressed by the following reaction formula: [drawing 1]
# (§2) Incidentally, the nitroprusside salt acts as a catalyst in the above reaction.
# Young pigs just after weaning were divided into 3 groups, each consisting of 6 pigs. Diets containing 10 ppm of multhiomycin were given to one group, diets containing 10 ppm of thiopeptin as the comparative medicament were given to another group, and a medicament-free diet was given to the remaining one group (control group). After 2 months, with respect to each group, the ammonia concentrations in portal blood were determined according to the modified Fujii-Okuda method.
# [4] = test system: ammonia (NH3-N) in contents of the colon; test: Ammonia concentration in contents of the colon of chickens (modified Fujii-Okuda method); assay type: in vivo, chicken; conditions: after 8 weeks, control 155
# Procedure: Chickens just after hatching were divided into 5 groups, each consisting of 10 chickens. Diets containing 2.5 ppm or 5.00 ppm of multhiomycin were given to two groups, respectively, and diets containing 2.5 ppm or 5.00 ppm of thiopeptin were given to other two groups (comparative groups), respectively. A medicament-free diet was given to the remaining one group (control group). After 8 weeks, with respect to each group, the ammonia concentrations in the contents of the colon were determined according to a modification of the method of Fujii and Okuda, described hereinafter.
# as §1, §2
# ammonia in excrement = test: Ammonia concentration in excrement of chickens (Kitagawa's vacuum gas detector); assay type: in vivo, chicken
# Source text: The tests were made on commercially available chickens for exclusive use as broilers (kind: Hubbard). 150 Chickens which were just hatched (male: 75, female: 75) were divided into 3 groups, each consisting of 50 chickens. Basal diets (containing no antibiotics, see Tables 6 and 7) were given to one group, and diets containing 2.5 ppm or 10 ppm of multhiomycin were given to the other two groups. The feed was constantly supplied to each group with water for 8 weeks from the hatching. Each group was bred in one windless cage (1.8×5.4×2.7 m, 9.7 m^2 per group), and each cage was kept warm by circulating warm water under the floor until the chickens were two weeks old. Further, the floor were covered with wood chips in a depth of about 3 cm.
# About 6 or 8 weeks from the beginning of the test, the ammonia concentration in excrement was measured in each group. The ammonia concentrations in the excrement were measured with Kitagawa's vacuum gas detector and the moisture content therein was measured with the hot-air drying method whereby 2 kg weight of excrement (containing chips) was treated at 100°±2° C. for 24 hours to measure its moisture content.
# bacteria = test: In vitro action on bacteria; assay type: cell-based
# Acidity = assay type: physicochemical
# ammonia = test: Ammonia concentration in the animal's body, intestine and blood or excrements (general statement); assay type: in vivo; conditions: compared with untreated animals
# [5] = Behavior of antibiotics in soil (microbial quantitative method); conditions: 10 μg/g added to soil, room temperature
# Procedure: (§3) The rise and fall in the activity of the multhiomycin excreted without absorption in the interior of the animal body was compared with the activity of other antibiotics, such as thiopeptin and thiostrepton.
# To soils (collected in Kikukawa-cho, Ogasa-gun, Shizuoka-ken, Japan) which were confirmed to have no anti-antibiotic activity were respectively added multhiomycin, thiopeptin and thiostrepton, each containing 10 μg/g concentration of each antibiotic. The soils were preserved under room temperature condition, and the remaining potencies in soils of each antibiotic were measured at different time intervals according to the microbal quantitative method.
# [6] = Remaining activity of antibiotics in excrement of chickens (microbial quantitative method); conditions: 10 μg/g added to chicken excrement, room temperature
# Procedure: as §3
# Multhiomycin, thiopeptin and thiostrepton were respectively added to the excrement of chickens bred with the feed containing no antibiotics in a concentration of 10 μg/g. The excrement was preserved under room temperature condition and the remaining potency of each antibiotic in excrement was measured at different time intervals with a microbal quantitative method.
Molecule,"Amount remaining in internal organs or muscles, in words [1]",Excretion [1],Acute toxicity LD50 (mice; female mouse),Acute toxicity LD50 (mice; male mouse),"Deaths (mice; mice, 4,000 mg/kg)",Acute toxicity in words [2],"NH3-N in portal blood, value in parentheses (difference from control) [3]",NH3-N in portal blood [3],NH3-N in contents of colon ([4]; 2.5 ppm in diet),NH3-N in contents of colon ([4]; 5.0 ppm in diet),"Ammonia concentration in excrement (ammonia in excrement; 2.5 ppm in diet, 6 weeks of age, control 25.5)","Ammonia concentration in excrement (ammonia in excrement; 2.5 ppm in diet, 8 weeks of age, control 29.7)","Ammonia concentration in excrement (ammonia in excrement; 10 ppm in diet, 6 weeks of age, control 25.5)","Ammonia concentration in excrement (ammonia in excrement; 10 ppm in diet, 8 weeks of age, control 29.7)",Action on bacteria (bacteria),Acidity (Acidity),"Ammonia in excrement of treated animals, in words (ammonia)",LD50 in words (mice),Remaining ratio in soil after 60 days [5],Remaining amount in excrement after 5 days [6]
C=C(NC(=O)c1csc(-c2nc3c(cc2O)-c2nc(cs2)C(=O)NC(C(C)O)C(=O)NC(=CC)c2nc(cs2)C(=O)NC2CC(O)C(=O)OCc4cccc5[nH]c(c(C)c45)C(=O)SCC(NC(=O)c4csc2n4)c2nc-3cs2)n1)C(N)=O (stereo not drawn) [Multhiomycin],so little as to be not perceptible in a recognizable amount,completely excreted,"> 4,000 mg/kg","> 4,000 mg/kg",did not cause a single death,low degree of acute toxicity,-3.36 µg/mL,3.44 µg/mL,60 μg/g of wet matter,46 μg/g of wet matter,9.8 ppm,11.2 ppm,9.0 ppm,10.0 ppm,astonishing action on bacteria,slightly acidic,very small amounts of ammonia,–,–,–
Thiopeptin,–,–,660 mg/kg,780 mg/kg,–,–,-0.8 µg/mL,6.00 µg/mL,120 μg/g of wet matter,100 μg/g of wet matter,–,–,–,–,–,–,–,small values of LD50,41%,52%
Thiostrepton,–,–,–,85 mg/kg,–,–,–,–,–,–,–,–,–,–,–,–,–,small values of LD50,44%,43%
